# According to patent US8497283B2, “Autotaxin inhibitors” (Merck Patent GmbH, priority 2009, dated 2013):
# Target: T1, recombinant autotaxin (Homo sapiens, UniProt Q13822)
# T1 construct: made in house; host or cells: Hi5 insect cells (baculovirus)
# Test: Autotaxin assay (Amplex Red fluorescence, LPC substrate)
# Format: biochemical
# Conditions: percent of uninhibited control (100%) at 1E−05 M compound
# Protocol: Autotaxin activity is measured indirectly by means of Amplex Red Reagent. In this course, Amplex Red is measured as fluorogenic indicator for generated H2O2. Autotaxin converts substrate lysophosphatidylcholine (LPC) to phosphocholine and lysophosphatidylic acid (LPA). After the conversion phosphocholine is reacted with alkaline phosphatase to obtain inorganic phosphate and choline. During the next step choline is oxidized with choline oxidase to yield betaine, whereby H2O2 is generated. H2O2 reacts with Amplex Red Reagent in the presence of peroxidase (Horseradish peroxidase) in an 1:1 stochiometry and yields highly fluorescent resorufin. The generated fluorescence is measured in a reaction-dependent kinetic mode in order to enable subtraction of fluorescence signals of possible other fluorescent compounds that are not part of the reaction from total measured fluorescence.
# 1.5 μl of a standard solution or of the compounds of the invention are dissolved in 20 mM Hepes pH 7.2 with maximally 7.7% DMSO in individual concentrations. The resulting solution is pre-incubated together with 10 μl (16 ng) of highly purified recombinant autotaxin in a black 384-hole microtiter plate for 30 min at 22° C.
# Thereafter, the reaction is started through the addition of 5 μl L-a-lysophosphatidyl-choline (LPC), whereby the final concentration of LPC is 75 μM. The mixture is incubated for 90 min. at 37° C. After the incubation Amplex Red Reagent, peroxidase (Horseradish peroxidase) and choline oxidase are added. The fluorescence is immediately measured at a wavelength of 612 nm with an excitation wavelength of 485 nm in a “Tecan Ultra multimode” fluorescence reader. The activity of autotaxin is indirectly calculated via the amount of detected generated H2O2.
# For IC50 analysis, ten serial 1:3 dilutions starting at 30 μM for each compound were run in duplicates.
# IC50 values were calculated on normalized data. For normalization, control wells were added to each assay plate and the signal of uninhibited control wells was set to 100%, whereas the signal inhibited by 500 μM C14 LPA, (Avanti Polar Lipids, Cat#857120P) was set to 0%. Curves were fitted and IC50 values calculated by the following model using proprietory analysis software: Y=Bottom+(100−Bottom)/(1+10^((Log IC50−X)*HillSlope))
# Where X is the logarithm of concentration. Y is the response;
# Y starts at Bottom and goes to Top with a sigmoid shape.
# Protein: Recombinant autotaxin (baculoviral Hi5 expression)
# Substrate: L-a-lysophosphatidyl choline (chicken egg); Avanti Polar Lipids #830071P
# Standard: C14 LPA, Avanti Polar Lipids, Cat#857120P
# Detection Reagent Amplex Red Reagent; Invitrogen #A12222; dissolved in 1.923 ml of DMSO peroxidase Type VI-A (horseradish), Sigma #P6782; dissolved in 7.45 ml of test buffer, Choline Oxidase; Sigma #C5896; dissolved in 2.47 ml test buffer
# Detection Reagent Mix: 1:100 dilution of Amplex Red Regent in test buffer
# Test buffer: 200 mM Tris-HCl, Merck, Cat #1.08219, pH 7.9; 0.1% BSA, lipid free, Roche Cat#775835
row,SMILES,% CTRL (1E−05)
1,"O=C(NC(CO)Cc1ccc(Cl)cc1)c1[nH]nc2c1CCN(C(=O)c1ccc3[nH]nnc3c1)C2 (stereo not drawn) [Compound 40, 6-(1H-Benzotriazole-5-carbonyl)-4,5,6,7-tetrahydro-2H-pyrazolo[3,4-c]pyridine-3-carboxylic acid [2-(4-chloro-phenyl)-1-hydroxymethyl-ethyl]-amide]",73%
2,"COc1ccccc1CNC(=O)c1[nH]nc2c1CCN(C(=O)c1ccc3[nH]nnc3c1)C2 [Compound 41, 6-(1H-Benzotriazole-5-carbonyl)-4,5,6,7-tetrahydro-2H-pyrazolo[3,4-c]pyridine-3-carboxylic acid 2-methoxy-benzylamide]",66%
3,"O=C(NCc1ccc(Cl)cc1F)c1[nH]nc2c1CCN(C(=O)c1ccc3[nH]nnc3c1)C2 [Compound 46, 6-(1H-Benzotriazole-5-carbonyl)-4,5,6,7-tetrahydro-2H-pyrazolo[3,4-c]pyridine-3-carboxylic acid 4-chloro-2-fluoro-benzylamide]",76%

# Same assay, conditions: ten serial 1:3 dilutions starting at 30 μM, duplicates; 75 μM LPC; values given as upper bounds
row,SMILES,IC50
1,"O=C(NCc1ccc(Cl)cc1)c1[nH]nc2c1CCN(C(=O)c1ccc3[nH]nnc3c1)C2 [Compound 34, 6-(1H-Benzotriazole-5-carbonyl)-4,5,6,7-tetrahydro-2H-pyrazolo[3,4-c]pyridine-3-carboxylic acid 4-chloro-benzylamide]",< 10 µM
2,"CC(CNC(=O)c1[nH]nc2c1CCN(C(=O)c1ccc3[nH]nnc3c1)C2)c1ccc(Cl)cc1 (stereo not drawn) [Compound 35, 6-(1H-Benzotriazole-5-carbonyl)-4,5,6,7-tetrahydro-2H-pyrazolo[3,4-c]pyridine-3-carboxylic acid [2-(4-chloro-phenyl)-propyl]-amide]",< 10 µM
3,"O=C(NCc1cc(C(F)(F)F)ccc1F)c1[nH]nc2c1CCN(C(=O)c1ccc3[nH]nnc3c1)C2 [Compound 36, 6-(1H-Benzotriazole-5-carbonyl)-4,5,6,7-tetrahydro-2H-pyrazolo[3,4-c]pyridine-3-carboxylic acid 2-fluoro-5-trifluoromethyl-benzylamide]",< 30 µM
4,"O=C(NCCc1ccc(Cl)c(Cl)c1)c1[nH]nc2c1CCN(C(=O)c1ccc3[nH]nnc3c1)C2 [Compound 37, 6-(1H-Benzotriazole-5-carbonyl)-4,5,6,7-tetrahydro-2H-pyrazolo[3,4-c]pyridine-3-carboxylic acid [2-(3,4-dichloro-phenyl)-ethyl]-amide]",< 10 µM
5,"O=C(NCc1cc(Cl)ccc1Cl)c1[nH]nc2c1CCN(C(=O)c1ccc3[nH]nnc3c1)C2 [Compound 38, 6-(1H-Benzotriazole-5-carbonyl)-4,5,6,7-tetrahydro-2H-pyrazolo[3,4-c]pyridine-3-carboxylic acid 2,5-dichloro-benzylamide]",< 10 µM
6,"O=C(NCCc1ccc(Cl)cc1)c1[nH]nc2c1CCN(C(=O)c1ccc3[nH]nnc3c1)C2 [Compound 39, 6-(1H-Benzotriazole-5-carbonyl)-4,5,6,7-tetrahydro-2H-pyrazolo[3,4-c]pyridine-3-carboxylic acid [2-(4-chloro-phenyl)-ethyl]-amide]",< 1 µM
7,"O=C(NCCc1cccc(Cl)c1)c1[nH]nc2c1CCN(C(=O)c1ccc3[nH]nnc3c1)C2 [Compound 42, 6-(1H-Benzotriazole-5-carbonyl)-4,5,6,7-tetrahydro-2H-pyrazolo[3,4-c]pyridine-3-carboxylic acid [2-(3-chloro-phenyl)-ethyl]-amide]",< 30 µM
8,"O=C(NCCc1ccc([N+](=O)[O-])cc1)c1[nH]nc2c1CCN(C(=O)c1ccc3[nH]nnc3c1)C2 [Compound 43, 6-(1H-Benzotriazole-5-carbonyl)-4,5,6,7-tetrahydro-2H-pyrazolo[3,4-c]pyridine-3-carboxylic acid [2-(4-nitro-phenyl)-ethyl]-amide]",< 10 µM
9,"O=C(NCCc1ccc(Br)cc1)c1[nH]nc2c1CCN(C(=O)c1ccc3[nH]nnc3c1)C2 [Compound 44, 6-(1H-Benzotriazole-5-carbonyl)-4,5,6,7-tetrahydro-2H-pyrazolo[3,4-c]pyridine-3-carboxylic acid [2-(4-bromo-phenyl)-ethyl]-amide]",< 10 µM
10,"COc1ccc(Cl)cc1CNC(=O)c1[nH]nc2c1CCN(C(=O)c1ccc3[nH]nnc3c1)C2 [Compound 45, 6-(1H-Benzotriazole-5-carbonyl)-4,5,6,7-tetrahydro-2H-pyrazolo[3,4-c]pyridine-3-carboxylic acid 5-chloro-2-methoxy-benzylamide]",< 10 µM
11,"O=C(NCCc1ccc(F)cc1)c1[nH]nc2c1CCN(C(=O)c1ccc3[nH]nnc3c1)C2 [Compound 47, 6-(1H-Benzotriazole-5-carbonyl)-4,5,6,7-tetrahydro-2H-pyrazolo[3,4-c]pyridine-3-carboxylic acid [2-(4-fluoro-phenyl)-ethyl]-amide]",< 10 µM
12,"O=C(Nc1ccc2c(c1)CCN(C(=O)c1ccc3[nH]nnc3c1)C2)OCc1cc(Cl)cc(Cl)c1 [Compound 48, [2-(1H-Benzotriazole-5-carbonyl)-1,2,3,4-tetrahydro-isoquinolin-6-yl]-carbamic acid 3,5-dichloro-benzyl ester]",< 10 µM
13,"O=C(NCc1ccc(SC(F)(F)F)cc1)c1[nH]nc2c1CCN(C(=O)c1ccc3[nH]nnc3c1)C2 [Compound 49, 6-(1H-Benzotriazole-5-carbonyl)-4,5,6,7-tetrahydro-2H-pyrazolo[3,4-c]pyridine-3-carboxylic acid 4-trifluoromethylsulfanyl-benzylamide]",< 30 µM
14,"O=C(Nc1ccc2[nH]nnc2c1)c1n[nH]c2c1CCN(C(=O)OCc1ccc(C(F)(F)F)cc1)C2 [Compound 50, 3-(1H-Benzotriazol-5-ylcarbamoyl)-1,4,5,7-tetrahydro-pyrazolo[3,4-c]pyridine-6-carboxylic acid 4-trifluoromethyl-benzyl ester]",< 1 µM
15,"O=C(NCc1ccc(F)c(Br)c1)c1[nH]nc2c1CCN(C(=O)c1ccc3[nH]nnc3c1)C2 [Compound 51, 6-(1H-Benzotriazole-5-carbonyl)-4,5,6,7-tetrahydro-2H-pyrazolo[3,4-c]pyridine-3-carboxylic acid 3-bromo-4-fluoro-benzylamide]",< 1 µM
16,"O=C(Nc1ccc2[nH]nnc2c1)c1[nH]nc2c1CCN(C(=O)OCc1cc(Cl)cc(Cl)c1)C2 [Compound 52, 3-(1H-Benzotriazol-5-ylcarbamoyl)-2,4,5,7-tetrahydro-pyrazolo[3,4-c]pyridine-6-carboxylic acid 3,5-dichloro-benzyl ester]",< 1 µM
17,"O=C(Nc1ccc2[nH]nnc2c1)c1[nH]nc2c1CCN(C(=O)OCc1cc(C(F)(F)F)cc(C(F)(F)F)c1)C2 [Compound 53, 3-(1H-Benzotriazol-5-ylcarbamoyl)-2,4,5,7-tetrahydro-pyrazolo[3,4-c]pyridine-6-carboxylic acid 3,5-bis-trifluoromethyl-benzyl ester]",< 1 µM
18,"O=C(Nc1ccc2[nH]nnc2c1)c1[nH]nc2c1CCN(C(=O)OCc1ccc(C(F)(F)F)c(Cl)c1)C2 [Compound 54, 3-(1H-Benzotriazol-5-ylcarbamoyl)-2,4,5,7-tetrahydro-pyrazolo[3,4-c]pyridine-6-carboxylic acid 3-chloro-4-trifluoromethyl-benzyl ester]",< 10 µM
19,"O=C(Nc1ccc2[nH]nnc2c1)c1[nH]nc2c1CCN(C(=O)OCc1cccc(C(F)(F)F)c1)C2 [Compound 55, 3-(1H-Benzotriazol-5-ylcarbamoyl)-2,4,5,7-tetrahydro-pyrazolo[3,4-c]pyridine-6-carboxylic acid 3-trifluoromethyl-benzyl ester]",< 1 µM
20,"O=C(Nc1ccc2[nH]nnc2c1)c1[nH]nc2c1CCN(C(=O)OCc1ccc(SC(F)(F)F)cc1)C2 [Compound 56, 3-(1H-Benzotriazol-5-ylcarbamoyl)-2,4,5,7-tetrahydro-pyrazolo[3,4-c]pyridine-6-carboxylic acid 4-trifluoromethylsulfanyl-benzyl ester]",< 1 µM
21,"O=C(Nc1ccc2[nH]nnc2c1)c1[nH]nc2c1CCN(C(=O)OCc1ccc(OC(F)(F)F)cc1)C2 [Compound 57, 3-(1H-Benzotriazol-5-ylcarbamoyl)-2,4,5,7-tetrahydro-pyrazolo[3,4-c]pyridine-6-carboxylic acid 4-trifluoromethoxy-benzyl ester]",< 10 µM
